Measurements from ChEMBL document CHEMBL1201862, “PubChem BioAssay data set” (2004).
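Tested at 5 concentrations; 48 h exposure; 96-well plates; endpoints linearly interpolated, else capped at highest concentration. At the GI50, growth is halved.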 Calls of active or inactive are those of the source. Cut-off read from the data, not from the text of the source: active = GI50 up to about 1.1 µM and inactive = higher.

Legend:
Experiment in all cases: NCI anticancer screen, dose series, 48 h
[1] = tested on: SW-620
[2] = tested on: Hs-578T
[3] = tested on: RPMI-8226
[4] = tested on: HCT-116
[5] = tested on: UO-31
[6] = tested on: SNB-19
[7] = tested on: NCI-H226
[8] = tested on: SR
[9] = tested on: SF-295
[10] = tested on: OVCAR-5
[11] = tested on: OVCAR-3
[12] = tested on: ACHN
[13] = tested on: MDA-MB-231
[14] = tested on: MCF7
[15] = tested on: OVCAR-8
[16] = tested on: A498
[17] = tested on: LOX IMVI
[18] = tested on: EKVX
[19] = tested on: 786-0
[20] = tested on: SK-OV-3
[21] = tested on: UACC-257
[22] = tested on: NCI/ADR-RES
[23] = tested on: TK-10
[24] = tested on: CAKI-1
[25] = tested on: SF-539
[26] = tested on: KM12
[27] = tested on: SK-MEL-5
[28] = tested on: Malme-3M
[29] = tested on: A549
[30] = tested on: HL-60
[31] = tested on: IGROV-1
[32] = tested on: COLO 205
[33] = tested on: HOP-62
[34] = tested on: HOP-92
[35] = tested on: T47D
[36] = tested on: SF-268
[37] = tested on: HCT-15
[38] = tested on: SK-MEL-2
[39] = tested on: BT-549
[40] = tested on: SN12C
[41] = tested on: UACC-62
[42] = tested on: DU-145
[43] = tested on: HCC 2998
[44] = tested on: MDA-MB-435
[45] = tested on: SK-MEL-28
[46] = tested on: HT-29
[47] = tested on: U-251
[48] = tested on: NCI-H23
[49] = tested on: OVCAR-4
[50] = tested on: SNB-75
[51] = tested on: RXF 393
[52] = tested on: PC-3
[53] = tested on: K562
[54] = tested on: MOLT-4
[55] = tested on: NCI-H460
[56] = tested on: NCI-H522
[57] = tested on: M14
[58] = tested on: CCRF-CEM
[59] = tested on: MDA-N
[60] = tested on: DMS-114
[61] = tested on: HOP-18
[62] = tested on: LXFL 529
[63] = tested on: DMS-273
[64] = tested on: DLD-1
[65] = tested on: KM-20L2
[66] = tested on: M19-MEL

With `COC(=O)C[C@H](CCSC)NC(=O)C[C@H](CCSC)NC(=O)C[C@H](CCSC)NC(=O)OC(C)(C)C` the GI50 [1] was > 100 µM (inactive), the GI50 [2] was 30.3 µM (inactive) and the GI50 [3] was > 100 µM (inactive). The GI50 [4] was 37.1 µM (inactive), the GI50 [5] was > 100 µM (inactive) and the GI50 [6] was 20.7 µM (inactive). For the same compound, the GI50 [7] was 41.7 µM (inactive), the GI50 [8] was 39.6 µM (inactive) and the GI50 [9] was 21.8 µM (inactive). For the same compound, the GI50 [10] was > 100 µM (inactive), the GI50 [11] was 22.5 µM (inactive) and the GI50 [12] was 36.9 µM (inactive). The GI50 [13] was 38.5 µM (inactive), the GI50 [14] was 38.1 µM (inactive) and the GI50 [15] was 28.7 µM (inactive). The GI50 [16] was 21 µM (inactive), the GI50 [17] was > 100 µM (inactive) and the GI50 [18] was 34.8 µM (inactive). For the same compound, the GI50 [19] was 33.6 µM (inactive), the GI50 [20] was 20 µM (inactive) and the GI50 [21] was 68.5 µM (inactive). The GI50 [22] was > 100 µM (inactive), the GI50 [23] was 19.1 µM (inactive) and the GI50 [24] was > 100 µM (inactive). The GI50 [25] was 17.5 µM (inactive), the GI50 [26] was > 100 µM (inactive) and the GI50 [27] was 56.4 µM (inactive). The GI50 [28] was > 100 µM (inactive), the GI50 [29] was 43.6 µM (inactive) and the GI50 [30] was 1.44 µM (inactive). The GI50 [31] was 56.2 µM (inactive), the GI50 [32] was > 100 µM (inactive) and the GI50 [33] was 39.4 µM (inactive). For the same compound, the GI50 [34] was 16.3 µM (inactive), the GI50 [35] was 63.1 µM (inactive) and the GI50 [36] was 20.4 µM (inactive). The GI50 [37] was over 100 µM, the GI50 [38] was 24.2 µM (inactive) and the GI50 [39] was 69.3 µM (inactive). The GI50 [40] was 32.8 µM (inactive), the GI50 [41] was 27.9 µM (inactive) and the GI50 [42] was 87.3 µM (inactive). The GI50 [43] was > 100 µM (inactive), the GI50 [44] was 39.5 µM (inactive) and the GI50 [45] was > 100 µM (inactive). For the same compound, the GI50 [46] was > 100 µM (inactive), the GI50 [47] was 19.5 µM (inactive) and the GI50 [48] was 47.2 µM (inactive). For the same compound, the GI50 [49] was 20.3 µM (inactive), the GI50 [50] was 13.4 µM (inactive) and the GI50 [51] was 16.1 µM (inactive). The GI50 [52] was > 100 µM (inactive), the GI50 [53] was > 100 µM (inactive) and the GI50 [54] was > 100 µM (inactive). The GI50 [55] was 69.8 µM (inactive), the GI50 [56] was 35.2 µM (inactive) and the GI50 [57] was 57.5 µM (inactive). The GI50 [58] was 67.1 µM (inactive) and the GI50 [59] was 48.3 µM (inactive).

In the case of `O=c1c2cc(O)ccc2n2nnc3ccc(NCCNCCO)c1c32`, the GI50 [3] is reported as 14.1 µM (inactive), the GI50 [4] is reported as 2.65 µM (inactive) and the GI50 [5] is reported as 16.3 µM (inactive). The GI50 [6] was 4.85 µM (inactive), the GI50 [7] was 2.31 µM (inactive) and the GI50 [9] was 11.7 µM (inactive). The GI50 [15] was 1.86 µM (inactive), the GI50 [17] was 1.71 µM (inactive) and the GI50 [18] was 14.5 µM (inactive). For the same compound, the GI50 [19] was 3.55 µM (inactive), the GI50 [20] was 5.4 µM (inactive) and the GI50 [60] was 1.71 µM (inactive). The GI50 [24] was 4.2 µM (inactive), the GI50 [25] was 3.85 µM (inactive) and the GI50 [26] was 11.2 µM (inactive). For the same compound, the GI50 [32] was 4.26 µM (inactive), the GI50 [34] was 2.06 µM (inactive) and the GI50 [36] was 1.59 µM (inactive). The GI50 [37] was 49.1 µM, the GI50 [61] was 24.3 µM (inactive) and the GI50 [46] was 6.62 µM (inactive). The GI50 [47] was 1.82 µM (inactive), the GI50 [48] was 5.92 µM (inactive) and the GI50 [49] was 3.84 µM (inactive). For the same compound, the GI50 [62] was 1.86 µM (inactive).

`COc1cc([C@H]2Oc3cc(O)c4c(=O)cc(-c5ccccc5)oc4c3O[C@@H]2CO)ccc1O` was tested, and the GI50 [3] was 59.8 µM (inactive), the GI50 [4] was 30.1 µM (inactive) and the GI50 [5] was 13.8 µM (inactive). For the same compound, the GI50 [7] was 32.4 µM (inactive), the GI50 [8] was 29.4 µM (inactive) and the GI50 [12] was 20.3 µM (inactive). The GI50 [16] was 21.9 µM (inactive), the GI50 [19] was 23.4 µM (inactive) and the GI50 [20] was 27.4 µM (inactive). For the same compound, the GI50 [60] was 28 µM (inactive), the GI50 [24] was 26.4 µM (inactive) and the GI50 [25] was 22.2 µM (inactive). For the same compound, the GI50 [28] was 19 µM (inactive), the GI50 [30] was 50.8 µM (inactive) and the GI50 [31] was 34 µM (inactive). For the same compound, the GI50 [32] was 69.5 µM (inactive), the GI50 [33] was 55.1 µM (inactive) and the GI50 [34] was 29.7 µM (inactive). For the same compound, the GI50 [63] was 51.3 µM (inactive), the GI50 [36] was 15.6 µM (inactive) and the GI50 [37] was 91.2 µM. The GI50 [38] was 40.4 µM (inactive), the GI50 [40] was 32.9 µM (inactive) and the GI50 [41] was 25.1 µM (inactive). The GI50 [43] was 58.5 µM (inactive), the GI50 [45] was 28.6 µM (inactive) and the GI50 [48] was 22.5 µM (inactive). The GI50 [49] was 19.9 µM (inactive), the GI50 [50] was 16.8 µM (inactive) and the GI50 [53] was 48.4 µM (inactive). The GI50 [64] was 46.9 µM (inactive), the GI50 [54] was 46.5 µM (inactive) and the GI50 [56] was 19.3 µM (inactive). For the same compound, the GI50 [57] was 39 µM (inactive), the GI50 [58] was 65.6 µM (inactive) and the GI50 [62] was 21.6 µM (inactive).

`COc1cc(C2c3cc4c(cc3[C@@H](NC3CCN(Cc5ccccc5)CC3)C3COC(=O)[C@H]23)OCO4)cc(OC)c1O` (stereo partly drawn) was tested, and the GI50 [4] was 0.195 µM (active), the GI50 [6] was 0.177 µM (active) and the GI50 [7] was 0.0137 µM (active). The GI50 [9] was 0.0311 µM (active), the GI50 [10] was 0.34 µM (active) and the GI50 [11] was 0.277 µM (active). For the same compound, the GI50 [15] was 0.161 µM (active), the GI50 [16] was 0.136 µM (active) and the GI50 [65] was 0.354 µM (active). The GI50 [20] was 0.0457 µM (active), the GI50 [25] was 0.0706 µM (active) and the GI50 [26] was 0.33 µM (active). For the same compound, the GI50 [29] was 0.0133 µM (active), the GI50 [30] was 0.0189 µM (active) and the GI50 [33] was 0.0282 µM (active). For the same compound, the GI50 [66] was 0.308 µM (active), the GI50 [36] was 0.203 µM (active) and the GI50 [37] was 0.132 µM. The GI50 [43] was 0.274 µM (active), the GI50 [45] was 0.627 µM (active) and the GI50 [46] was 0.243 µM (active). The GI50 [64] was 0.408 µM (active) and the GI50 [58] was 0.0251 µM (active).
